Where two headings read alike, the source gives them in different places.
Key:
Muscarinic receptor 1 = target: T1, Muscarinic receptor 1 (Rattus norvegicus, UniProt P08482); assay: Affinity for the muscarinic M1 receptor ([^3 H]pirenzepine binding, rat cortex); settings: 0.25 nM ^3 H pirenzepine, 60 min, 25° C., pH 7.4
T1 construct: cortex removed from the brains of male rats weighing 150 to 200 g (Iffa Credo); from tissue; host or cells: rat cerebral cortex homogenate
T1 sequence (P08482 1-460): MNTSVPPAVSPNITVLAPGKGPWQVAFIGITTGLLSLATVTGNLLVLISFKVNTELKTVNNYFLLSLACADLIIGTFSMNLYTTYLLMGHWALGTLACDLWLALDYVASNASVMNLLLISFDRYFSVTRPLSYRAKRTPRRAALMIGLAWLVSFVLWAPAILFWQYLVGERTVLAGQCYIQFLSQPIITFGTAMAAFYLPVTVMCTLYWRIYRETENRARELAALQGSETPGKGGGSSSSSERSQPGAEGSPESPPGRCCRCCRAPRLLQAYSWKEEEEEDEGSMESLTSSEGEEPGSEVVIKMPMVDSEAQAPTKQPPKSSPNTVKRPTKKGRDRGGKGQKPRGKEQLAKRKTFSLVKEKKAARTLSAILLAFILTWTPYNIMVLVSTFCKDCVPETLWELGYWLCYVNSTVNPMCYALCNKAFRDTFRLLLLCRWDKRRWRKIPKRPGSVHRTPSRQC
Procedure: Its preparation is carried out from cortex removed from the brains of male rats weighing 150 to 200 g (Iffa Credo) ground up in a Polytron in a 10 mM Na/K pH 7.4 buffer. After incubation (0.5 ml aliquots of homogenate) for 60 minutes at 25° C. in the presence of 0.25 nM of ^3 H pirenzepine either on its own, or with the product to be tested, or with an excess of pirenzepine at 10^-5 M (in order to determine the non-specific fixed radioactivity), the incubates are cooled down and filtered.
The filtration is carried out on Whatman GF/C filters prewashed in a 0.05% polyethylene imine solution. The filters are rinsed with 3×5 ml of 10 mM Na/K pH 7.4 phosphate buffer, then measurements are carried out by liquid scintillation.
(§1) The results are expressed in IC50 (concentration necessary to inhibit 50% of the fixed specific radio-activity).

[1] = tested on: barium chloride-induced contractions of isolated ileum; assay: Antagonism of barium chloride-induced contractions of isolated guinea-pig ileum; assay type: cell-based; settings: read-out: Antagonistic to BaCl2, IC50
Procedure: (§2) The interaction of the compounds with different receptors was evaluated on the isolated ileum of a guinea-pig according to the following method.
(§3) 2.5-3 cm segments of the guinea-pigs, ileum were washed and immediately suspended in a bath containing 10 ml of a Tyrode solution at 37° C. and aerated with a mixture of oxygen (95%) and carbon dioxide (5%). After a stabilization period of at least 30 minutes, the contractions are recorded, maintaining the preparation under constant pressure of 1 g, using a sensor connected to a polygraph. […] The following dose was only added to the bath after the preparation returned to its base line. Arecoline was used as reference product. The antagonistic action was evaluated on contractions induced by acetylcholine (1×10^-6 M), histamine (1×10^-5 M) and barium chloride (2×10^-5 M). […] The contact time before adding the agonist was one minute.
(§4) For each compound the dose-response curves are obtained with 4 to 6 different concentrations and 3 to 5 independent tests. The agonistic activity is expressed by pD2 (negative logarithm of the dose which produces 50% of the maximum effect). The antagonistic activity is expressed by IC50 (concentration inhibiting 50% of the maximum response).

[2] = tested on: histamine-induced contractions of isolated ileum; assay: Antagonism of histamine-induced contractions of isolated guinea-pig ileum; assay type: cell-based; settings: histamine 1×10^-5 M, contact time one minute, 37° C., read-out: Antagonistic to Histam., IC50
Procedure: as §2, §3, §4

isolated ileum = assay: Agonistic action on isolated guinea-pig ileum; assay type: cell-based; settings: negative logarithm of the dose producing 50% of the maximum effect; for EC50: Cavia porcellus, read-out: Agonistic action pD2 (converted)
Procedure: as §2, §3, §4

[3] = tested on: acetylcholine-induced contractions of isolated ileum; assay: Antagonism of acetylcholine-induced contractions of isolated guinea-pig ileum; assay type: cell-based; settings: read-out: Antagonistic to ACh, IC50
Procedure: as §2, §3, §4

Muscarinic receptor 2 = assay: Affinity for the muscarinic M2 receptor ([^3 H]quinuclidinyl benzylate binding, rat brain); settings: 0.3 nM ^3 H quinuclidinyl benzylate, 60 min, 25° C., pH 7.5
Procedure: The preparation is carried out from the brains of male rats weighing 150 to 200 g (Iffa Credo).
The brains are ground up (Teflon-glass) in a 0.32 M sucrose solution. The homogenate is centrifuged for 10 minutes at 1000 g (0-4° C.).
The supernatant obtained is collected and centrifuged again at 30000 g for 15 minutes (0-4° C.).
The deposit is put in suspensions in a 50 mM Tris pH 7.5 buffer and the new homogenate is centrifuged again at 30000 g for 15 minutes (0-4° C.).
After elimination of the supernatants, the deposits can be used immediately or kept for up to one month at -30° C.
For one experiment the deposits are firstly defrosted, if necessary, at ambient temperature and put in suspension using a Dounce grinder in a 50 mM Tris pH 7.5 buffer. 2 ml aliquots are incubated for 60 minutes at 25° C. in the presence of 0.3 nM of
^3 H quinuclidinyl benzylate either on its own, or with the product to be tested, or with benzatropine at 10^-5 M in order to determine the non-specific fixed radioactivity.
At the end of the incubation, the tubes of incubate are cooled down to 4° C. and the incubate is filtered rapidly on Whatman GF/C filters. The filters are rinsed with 3×5 ml of 50 mM Tris pH 7.5 buffer then measurements are carried out by liquid scintillation (Henry I Yamamura, Solomon H. Synder, Proc. Nat. Acad Sc. (1974) 71, No. 5, 1725-1729).
as §1

[4] = tested on: cholinomimetic effects induced by carbachol; assay: In vivo anti-cholinergic action: inhibition of cholinomimetic effects induced by carbachol in mice; set-up: species or system CD1 male mice; settings: for ED50 / ED (1 degree C): Mus musculus, ip, 0.5 h; for ED (1 degree C): rectal temperature, read-out: Dose changing body temperature (hypothermic effect of carbachol) by 1° C.
Procedure: The anti-cholinergic activity of the compounds was determined by evaluating the capacity to inhibit the cholino-mimetic effects induced by carbachol. Atropine sulphate was used as reference product.
CD1 male mice weighing 25 to 30 g are used. They are divided into groups of 6 animals and treated by intraperi-toneal route at scalar doses of the products or 0.25% Methocel for the controls. 12 animals are used for each dose. 30 minutes after the administration of the compounds, 1 mg/kg of carbachol, dissolved in physiological serum, was injected into the mice by sub-cutaneous route.
Each animal was examined 30 minutes after the injection of carbachol to evaluate the presence of diarrhoea, salivation and weeping; the body temperature was also measured using a thermocouple inserted 1.5 cm inside the rectum.
For each compound, we have determined the dose which can inhibit, in 50% of the animals, the appearance of cholinomimetic symptoms induced by carbachol and […] the hypothermic effect induced by the cholinergic agent by 1° C.

[5] = Cavia porcellus, barium chloride 2×10^-5 M, contact time one minute, 37° C.
[6] = Cavia porcellus, acetylcholine 1×10^-6 M, contact time one minute, 37° C.
[7] = i.p., 30 min before carbachol 1 mg/kg s.c., read-out: Dose inhibiting diarrhoea in 50% of the animals
[8] = i.p., 30 min before carbachol 1 mg/kg s.c., read-out: Dose inhibiting salivation in 50% of the animals
[9] = i.p., 30 min before carbachol 1 mg/kg s.c., read-out: Dose inhibiting weeping in 50% of the animals
[10] = i.p., 30 min before carbachol 1 mg/kg s.c.

“1-[[4-(dimethylamino)-phenyl]-sulphonyl]-4-(2,2-dimethyl-1-oxo-propoxy)-2-pyrrolidinone [Example 2]” was tested, and the IC50 (Muscarinic receptor 1) was 0.72 µM, the IC50 ([1]; barium chloride 2×10^-5 M, contact time one minute, 37° C.) was over 10 µM and the IC50 [2] was over 10 µM. The “Agonistic action pD2” value (isolated ileum) was under 4, the IC50 ([3]; acetylcholine 1×10^-6 M, contact time one minute, 37° C.) was 5.5 µM and the IC50 (Muscarinic receptor 2) was over 5 µM.

COC(=O)C1=CCCN(C)C1 [Arecoline, reference compound] gave an EC50 (isolated ileum) of 0.209 µM.

In the case of CN1[C@@H]2CC[C@H]1C[C@@H](OC(=O)C(CO)c1ccccc1)C2 (stereo partly shown) [Atropine, reference compound], the IC50 ([3]; Cavia porcellus) is reported as 0.0095 µM, the ED50 ([4]; read-out: Dose inhibiting diarrhoea in 50% of the animals) is reported as 0.04 mg/kg and the ED50 ([4]; read-out: Dose inhibiting salivation in 50% of the animals) is reported as 0.06 mg/kg. For the same compound, the ED50 ([4]; read-out: Dose inhibiting weeping in 50% of the animals) was 0.05 mg/kg.

For C[N+](C)(C)CCOC(N)=O [Carbochol, carbachol, reference compound], the “decrease of the rectal temperature” value ([4]; 1 mg/kg s.c., control mice) was “about 2.5 °C” and the “induction of diarrhoea, salivation and weeping” value ([4]; 1 mg/kg s.c., control mice) was “induced diarrhoea, salivation and weeping in all the control mice”.

For CCN(CC)c1ccc(S(=O)(=O)N2CC(O)CC2=O)cc1 (stereo not shown) [Example 1, 1-[[4-(diethylamino)-phenyl]sulphonyl]-4-hydroxy-2-pyrrolidinone], the IC50 (Muscarinic receptor 1) was 0.37 µM, the IC50 [1, 5] was over 10 µM and the IC50 ([2]; Cavia porcellus) was over 10 µM. For the same compound, the EC50 (isolated ileum) was over 100 µM, the IC50 [3, 6] was 0.86 µM and the IC50 (Muscarinic receptor 2) was over 5 µM.

CCN(CC)c1ccc(S(=O)(=O)N2CC(O)CC2=S)cc1 (stereo not shown) [Example 3, 1-[[4-(diethylamino)-phenyl]-sulphonyl]-4-hydroxy-2-pyrrolidine thione] gave an IC50 (Muscarinic receptor 1) of 0.37 µM, an IC50 [1, 5] of over 10 µM and an IC50 ([2]; Cavia porcellus) of over 10 µM. For the same compound, the EC50 (isolated ileum) was over 100 µM, the IC50 [3, 6] was 3 µM and the IC50 (Muscarinic receptor 2) was over 5 µM.

O=C1CC(O)CN1S(=O)(=O)c1ccc(N2CCCCC2)cc1 (stereo not shown) [Example 4, 4-hydroxy-1-[[4-(1-piperidinyl)-phenyl]-sulphonyl]-2-pyrrolidinone] showed an IC50 (Muscarinic receptor 1) of 0.56 µM, an IC50 [1, 5] of 2.5 µM and an IC50 ([2]; Cavia porcellus) of over 10 µM. For the same compound, the EC50 (isolated ileum) was over 100 µM, the IC50 [3, 6] was 1.2 µM and the IC50 (Muscarinic receptor 2) was 10 µM.

Work on O=S(=O)(c1ccc(N2CCCCC2)cc1)N1CC(O)CC1=S (stereo not shown) [Example 5] yielded an IC50 (Muscarinic receptor 1) of 0.17 µM, an IC50 [1, 5] of over 10 µM and an IC50 ([2]; Cavia porcellus) of over 10 µM. The EC50 (isolated ileum) was over 100 µM, the IC50 [3, 6] was 1.4 µM and the IC50 (Muscarinic receptor 2) was over 5 µM. For the same compound, the ED50 [4, 7] was 6 mg/kg, the ED50 [4, 8] was 50 mg/kg and the ED50 [4, 9] was over 50 mg/kg. The ED (1 degree C) [4, 10] was 25 mg/kg and the “selectivity of in vivo anticholinergic action (in words)” value ([4]; contrary to atropine) was “selective anticholingeric action at the level of the intestinal musculature”.

O=C1CC(O)CN1S(=O)(=O)c1ccc(N2CCCCCC2)cc1 (stereo not shown) [Example 6, 1-[[4-(hexahydro-1H-azepin-1-yl)-phenyl]-sulphonyl]-4-hydroxy-pyrrolidinon] showed an IC50 (Muscarinic receptor 1) of 0.062 µM, an IC50 [1, 5] of 2.5 µM and an IC50 ([2]; Cavia porcellus) of over 10 µM. It also gave an EC50 (isolated ileum) of over 100 µM, an IC50 [3, 6] of 0.11 µM and an ED50 [4, 7] of 12 mg/kg. For the same compound, the ED50 [4, 8] was over 50 mg/kg, the ED50 [4, 9] was over 50 mg/kg and the ED (1 degree C) [4, 10] was 50 mg/kg.

O=S(=O)(c1ccc(N2CCCCCC2)cc1)N1CC(O)CC1=S (stereo not shown) [Example 7, 1-[[4-(hexahydro-1H-azepin-1-yl)-phenyl]-sulphonyl]-4-hydroxy pyrrolidine thione] was tested, and the IC50 (Muscarinic receptor 1) was 0.083 µM, the IC50 [1, 5] was 3.6 µM and the IC50 ([2]; Cavia porcellus) was over 10 µM. It also gave an EC50 (isolated ileum) of over 100 µM, an IC50 [3, 6] of 0.51 µM and an ED50 [4, 7] of 5 mg/kg. The ED50 [4, 8] was 50 mg/kg, the ED50 [4, 9] was over 50 mg/kg and the ED (1 degree C) [4, 10] was 20 mg/kg.

Compound COc1ccc(Cc2nccc3cc(OC)c(OC)cc23)cc1OC [Papaverine, papaverine, reference compound] has an IC50 ([1]; Cavia porcellus) of 45 µM.

— patent US5204341A, “1-arylsulphonyl-2-pyrrolidone derivatives, their preparation process and the new intermediates obtained, their use as medicaments and the pharmaceutical compositions containing them” (priority 1990, dated 1993)
